The values that follow come from ChEMBL document CHEMBL1147011, “Antimalarial effect of bis-pyridinium salts, N,N'-hexamethylenebis(4-carbamoyl-1-alkylpyridinium bromide)” (Bioorg Med Chem Lett, 2006).

Assay [1] has as its system Plasmodium falciparum. The assay can be described thus: Antimalarial activity against chloroquine-sensitive Plasmodium falciparum FCR3. Format: functional, organism-based.
Assay [2] concerns FM3A. Put plainly: Cytotoxicity against mouse FM3A cell line. It counts as functional, cell-based.
Assay [3] concerns FM3A. The assay can be described thus: Selectivity ratio of EC50s against Plasmodium falciparum FCR3 to mice (Mus musculus) FM3A cells. Format: functional.

The structures appear in SMILES notation.

Regarding `CCCCCCCC[n+]1ccc(C(=O)NCCCCCCNC(=O)c2cc[n+](CCCCCCCC)cc2)cc1.[Br-].[Br-]`, the values for the EC50 in assay [1] and in assay [2] were 10 nM and 5800 nM, respectively. The “Ratio EC50” value in assay [3] came out at 580.
Turning to `CCCCCCCCCC[n+]1ccc(C(=O)NCCCCCCNC(=O)c2cc[n+](CCCCCCCCCC)cc2)cc1.[Br-].[Br-]`, the EC50 in assay [1] is 40 nM; in assay [2], 450 nM. In addition, the “Ratio EC50” value in assay [3] came to 11.
As to `CCCCCC[n+]1ccc(C(=O)NCCCCCCNC(=O)c2cc[n+](CCCCCC)cc2)cc1.[Br-].[Br-]`, the EC50 in assay [1] is 52 nM; in assay [2], greater than 17300 nM. For the same molecule, in assay [3], the “Ratio EC50” value was greater than 333.
`CCCCCCCCCCCC[n+]1ccc(C(=O)NCCCCCCNC(=O)c2cc[n+](CCCCCCCCCCCC)cc2)cc1.[Br-].[Br-]`: the 50% effective concentration (EC50) in assay [1] came out at 130 nM; in assay [2] it was 420 nM. The “Ratio EC50” value in assay [3] is listed as 3.
As to `CCCCCCCCCCCCCC[n+]1ccc(C(=O)NCCCCCCNC(=O)c2cc[n+](CCCCCCCCCCCCCC)cc2)cc1.[Br-].[Br-]`, the figures for the EC50 in assay [1] and in assay [2] were 1100 nM and 2800 nM, respectively. The “Ratio EC50” value in assay [3] was 3.
With `CCCCCCCCCCCCCCCC[n+]1ccc(C(=O)NCCCCCCNC(=O)c2cc[n+](CCCCCCCCCCCCCCCC)cc2)cc1`, the results for the EC50 in assay [1] and in assay [2] were 3500 nM and 2200 nM, respectively.
For the molecule `CCN(CC)CCCC(C)Nc1ccnc2cc(Cl)ccc12` (centres undefined) [CHLOROQUINE], the “Ratio EC50” value in assay [3] turned out to be 1800.
As to `C=C[C@H]1CN2CC[C@H]1C[C@H]2[C@H](O)c1ccnc2ccc(OC)cc12` [QUININE], the “Ratio EC50” value in assay [3] was found to be 910.

The EC50 is the concentration that produces a half-maximal response. Higher therefore signals weaker potency.
